Measured values taken from ChEMBL document CHEMBL1201862, “PubChem BioAssay data set” (2004).
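Method: 48-hour compound exposure of cells in 96-well plates, five concentrations, linear interpolation of endpoints. Abbreviation: GI50, concentration required for 50% inhibition of growth.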 Calls of active or inactive are those of the source. No stated cut-off is given here; in the data, active = GI50 up to about 1.1 µM and inactive = higher.

Tests used:
Test in all cases: NCI anticancer screen, dose series, 48 h
[1] = test system: HL-60
[2] = test system: T47D
[3] = test system: HOP-62
[4] = test system: SW-620
[5] = test system: OVCAR-8
[6] = test system: CCRF-CEM
[7] = test system: A498
[8] = test system: SK-OV-3
[9] = test system: SK-MEL-5
[10] = test system: UO-31
[11] = test system: MDA-N
[12] = test system: PC-3
[13] = test system: Hs-578T
[14] = test system: MDA-MB-231
[15] = test system: SNB-75
[16] = test system: OVCAR-3
[17] = test system: IGROV-1
[18] = test system: U-251
[19] = test system: SK-MEL-2
[20] = test system: OVCAR-5

Measured: GI50

Cc1n[nH]c(=O)c2cc(-c3ccccc3)[nH]c12
inactive: [1] 54 µM | [2] 27.5 µM | [3] > 100 µM | [4] > 100 µM | [5] 72.3 µM | [6] 48.2 µM | [7] 25.9 µM | [8] > 100 µM | [9] 41.6 µM | [10] 49.3 µM | [11] 73.3 µM | [12] 34.5 µM | [13] 26.4 µM | [14] 40.8 µM | [15] 39.2 µM | [16] 54.1 µM | [17] 70.6 µM | [18] 51.2 µM | [19] 31 µM | [20] 50.7 µM

COc1ccc2c(-c3csc(-c4c[nH]c5ccccc45)n3)c[nH]c2c1
inactive: [1] 4.66 µM | [2] 6.32 µM | [3] 16.8 µM | [4] 6.92 µM | [5] 7.85 µM | [6] 4.36 µM | [7] 8.65 µM | [8] 17.7 µM | [9] 7.18 µM | [10] 5.9 µM | [11] 8.73 µM | [12] 4.7 µM | [13] 12.5 µM | [14] 5.2 µM | [15] 22 µM | [16] 13.9 µM | [17] 5.58 µM | [18] 5.19 µM | [19] 14.5 µM | [20] 7.8 µM

c1csc(-c2csc(-c3ccsc3)c2)c1
inactive: [1] > 74.6 µM | [2] > 45.1 µM | [3] > 100 µM | [4] > 100 µM | [5] > 100 µM | [6] > 100 µM | [7] > 100 µM | [8] > 100 µM | [9] > 100 µM | [10] > 70.1 µM | [11] > 100 µM | [12] > 100 µM | [13] > 100 µM | [14] > 100 µM | [15] > 92 µM | [16] > 100 µM | [17] > 100 µM | [18] > 100 µM | [19] > 100 µM | [20] > 100 µM

Oc1nc2c(c(-c3ccc(Br)cc3)n1)COC/C2=C\c1ccc(Br)cc1
inactive: [1] > 50 µM | [2] > 50 µM | [3] > 50 µM | [4] > 50 µM | [5] > 50 µM | [6] > 50 µM | [7] > 50 µM | [8] > 50 µM | [9] > 50 µM | [10] > 50 µM | [11] > 50 µM | [12] > 50 µM | [13] > 50 µM | [14] > 50 µM | [15] > 50 µM | [16] > 50 µM | [17] > 50 µM | [18] > 50 µM | [19] > 50 µM | [20] > 50 µM

O=S(=O)(N=[Se](=O)(c1ccccc1)c1ccccc1)c1ccccc1
inactive: [1] 25.1 µM | [2] > 100 µM | [3] > 100 µM | [4] > 100 µM | [5] > 100 µM | [6] > 100 µM | [7] > 100 µM | [8] > 100 µM | [9] > 100 µM | [10] 58.1 µM | [11] > 100 µM | [12] > 100 µM | [13] > 100 µM | [14] > 100 µM | [15] > 100 µM | [16] > 100 µM | [17] 28 µM | [18] > 100 µM | [19] 48.3 µM | [20] > 100 µM

c1ccc2c[n+](CCCCCCCCCC[n+]3ccc4ccccc4c3)ccc2c1
inactive: [1] > 10 µM | [2] > 10 µM | [3] > 10 µM | [4] > 10 µM | [5] > 10 µM | [6] > 10 µM | [7] > 10 µM | [8] > 10 µM | [9] 2.66 µM | [10] > 10 µM | [11] > 10 µM | [12] > 7.52 µM | [13] 9.91 µM | [14] > 10 µM | [15] 3.68 µM | [16] > 4.35 µM | [17] > 10 µM | [18] > 8.59 µM | [19] > 10 µM | [20] > 5.09 µM
